The subject of series [1] is BMRPA1 normal rat pancreatic acinar cells. Nature of the series: Growth and viability of untransformed BMRPA1 cells incubated with peptide. It counts as cell-based. On the procedure: (§1) MIAPaCa-2 cells were grown in Dulbecco's modified Eagle's medium (GIBCO) supplemented with heat inactivated 10% fetal calf serum, 20 mM glutamine, penicillin (100 units/ml), streptomycin (100/ug/ml) and plated on a six-well plate with density no more then 20,000 cells/well in 3 ml culture medium. HT1080 cells were cultured in RPMI 1640 medium supplemented with 10% heat-inactivated fetal calf serum, 100 units/ml of penicillin and 100 ug/ml streptomycin and plated on six-well plates with a density of no more then 6,000 cells/well in 3 ml culture medium. BMRPA1 normal rat pancreatic acinar cells were grown as described previously.
(§2) All cells (approximately 2×10^4) were incubated in their respective media (see above) for 24 h after which the media were replaced with the same media containing one of the peptides at a concentration of 100 μg/ml. Over the subsequent time course of each experiment, the medium was changed every 48 h, but always contained peptide at the same concentration. Cells were observed daily for 1-3 weeks for changes in morphology and growth characteristics. After selected time periods, cells were stained with trypan blue or assayed using the MTT assay as described previously to assess cell counts. These experiments were performed at least three times for each cell line.

For series [2], the system named is HT-1080 fibrosarcoma cells. Nature of the series: Growth (cell counts) of HT-1080 cells incubated with peptide. It counts as cell-based, human. As to conditions: peptide 100 μg/ml, medium changed every 48 h; three-week observation period (FIG. 1). Here is the method: as §1, §2
The test system of series [3] is insulin-induced oocyte maturation. Nature of the series: Insulin-induced oocyte maturation (activated wild-type ras-p21). It counts as cell-based, Xenopus laevis. As to conditions: oocytes induced to mature with insulin. The source says: (§3) The Applicants have synthesized both of the inventive peptides, referred to as PNC-7 and PNC-2, and assayed them for their abilities to block oncogenic ras-p21 induction of maturation of Xenopus laevis oocytes. Injection of oncogenic, but not wild-type ras-p21, into these oocytes induce oocyte maturation, i.e., completion of the second meiotic division, as measured by germinal vesicle membrane breakdown (GVBD). Insulin also induces oocyte maturation in a manner that requires activation of endogenous wild-type ras-p21.

Series [4] concerns oncogenic (Val 12-containing) ras-p21-induced oocyte maturation. Nature of the series: Oncogenic ras-p21-induced oocyte maturation (GVBD). It counts as cell-based, Xenopus laevis. As to conditions: injected/co-injected with oncogenic ras-p21 into oocytes.
Text: as §3

In series [5] the target is oncogenic ras-p21 with raf (Homo sapiens, UniProt P04049). The series can be described thus: Interaction of oncogenic ras-p21 with raf. Type of series: binding.
Series [6] relates to caspase (CPP32) in MIA-PaCa-2 cells. Nature of the series: Clontech caspase (CPP32) activity assay for apoptosis. Type of series: cell-based, human. As to conditions: relative to control background; TNF-alpha 20 ng/ml for 45 min as positive control (FIG. 4A). Here is the method:
To detect if peptide-induced cell death occurred by apoptosis or necrosis, the Clontech caspase (CPP32) activity assay for elevated caspase was performed as described previously. In addition, to detect if significant cell necrosis occurred, the CytoTox96 assay for LDH released into the cell culture medium was used as also described previously. As a positive control for LDH release, the CytoTox96 assay was performed on the media of MIA-PaCa-2 cells that were incubated with 100 ug/ml PNC-28 peptide for 24 h.

In series [7] the test system is oncogenic ras-p21-JNK interaction. Nature of the series: Oncogenic ras-p21-JNK interaction. It counts as binding. As to conditions: dose-response curve coincides with that for inhibition of oocyte maturation.

Where no end group is shown, it is not given here.

In the case of “MPFSTGKRIMLGEKKWKMRRNQFVKVQRG [PNC-29, reference compound]”, in series [1], the “cell growth or viability of untransformed BMRPA1 cells” value (“cell growth or viability” for short) is given as “no effect either on cell growth or viability”. As for “NAVFRLLHEHKGKKAKKWKMRRNQFVKVQRG (CD45-MRP- Control peptide from the CD-45 antigen linked to penetratin) [CD-45-MRP]”, in series [2], the “tumor cell growth / cell count of HT-1080 cells” value is given as “no effect on tumor cell growth”.

For the substance “TIEDSYRQVVID (PNC-7- ras-p21 residue 35-47)”, the “inhibition of insulin-induced oocyte maturation” value in series [3] is given as “considerably less inhibitory activity”. Also, the “inhibition of oncogenic ras-p21-induced oocyte maturation” value in series [4] is reported as “block”. Besides, the “blocking of the interaction of oncogenic ras-p21 with raf” value in series [5] is listed as “blocks the interaction of oncogenic ras-p21 with raf”.

In the case of “TIEDSYRQVVIDKKWKMRRNQFVKVQRG [PNC-7-MRP]”, the “cell growth or viability” value in series [1] is recorded as “no effect either on cell growth or viability”. Regarding TNF-alpha, the “caspase expression in MIA-PaCa-2 cells” value in series [6] is “markedly elevated”.

“YREQIKRVKDSDDVP (PNC-2 -ras-p21 residue 96-110)”: the “inhibition of insulin-induced oocyte maturation” value in series [3] is “considerably less inhibitory activity”. Also, the “inhibition of oncogenic ras-p21-induced oocyte maturation” value in series [4] was “block”. Also, in series [7], the “blocking of the oncogenic ras-p21-JNK interaction” value is on record as “blocks the oncogenic ras-p21-JNK interaction”. As for “YREQIKRVKDSDDVPKKWKMRRNQFVKVQRG [PNC-2-MRP]”, the “cell growth or viability” value in series [1] is “no effect either on cell growth or viability”.

Source of the values: patent publication US20100144636A1, “PEPTIDES DERIVED FROM RAS-P21 AND USES THEREFOR” (THE RESEARCH FOUNDATION OF STATE UNIVERSITY OF NEW YORK, priority 2008, published 2010).
